Data reported in patent publication US20210009549A1, “CANNABINOID DERIVATIVES AND CONJUGATES AND USES THEREOF” ([…] LTD., priority 2018, published 2021).

What was measured:
human α1 GlyR = target: T1, human α1 GlyR (Homo sapiens, UniProt P23415); assay: Whole-cell patch clamp, modulation of α1 GlyR-regulated ion channel currents; format: cell-based; details: HEK293 cells stably expressing human α1 GlyR; EC2 glycine (1 μM); holding potential −40 mV; room temperature
T1 construct: expressed in transfected cells
T1 sequence (P23415 29-457): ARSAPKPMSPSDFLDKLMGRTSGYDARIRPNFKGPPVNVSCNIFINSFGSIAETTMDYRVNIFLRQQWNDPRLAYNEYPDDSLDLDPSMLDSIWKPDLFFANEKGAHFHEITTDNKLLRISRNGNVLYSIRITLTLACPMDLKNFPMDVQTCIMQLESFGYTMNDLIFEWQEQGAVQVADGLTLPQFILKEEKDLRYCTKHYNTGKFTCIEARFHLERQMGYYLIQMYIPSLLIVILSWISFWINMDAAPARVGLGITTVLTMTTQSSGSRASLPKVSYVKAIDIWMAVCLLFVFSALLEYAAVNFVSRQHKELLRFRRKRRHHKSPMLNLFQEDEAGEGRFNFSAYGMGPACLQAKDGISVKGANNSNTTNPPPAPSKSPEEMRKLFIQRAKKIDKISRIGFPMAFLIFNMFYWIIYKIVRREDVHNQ
Method: (§1) Currents were recorded by whole-cell patch clamp on HEK293 cells that stably expressed either the human α1 or α3 GlyRs. Cells were cultured on glass coverslips and placed into the recording chamber which was perfused by the standard extracellular solution containing (in mM): 140 NaCl, 5 KCl, 2 CaCl2), 1 MgCl2, 10 HEPES/NaOH and 10 glucose (pH 7.4 adjusted with NaOH). For HEK293 cell recordings we employed an intracellular solution consisting of (mM): 145 CsCl, 2 CaCl2), 2 MgCl2, 10 HEPES and 10 EGTA (pH 7.4 adjusted with CsOH; osmolarity 290 mOsm). HEK293 cell recordings were performed at a holding potential of −40 mV. Solutions were applied to cells via gravity induced perfusion via parallel microtubules under micromanipulator control with a solution exchange time of <250 ms. Experiments were conducted at room temperature (20-22° C.). Due to the irreversible nature of the drug actions, only one cell was tested per coverslip.
(§2) Patch pipettes were fabricated from borosilicate hematocrit tubing (Hirschmann Laborgerate, Eberstadt, Germany) and heat polished. Pipettes had tip resistances of […]. Membrane currents were recorded using an Axopatch 200B amplifier and a Digidata 1440 analog-to-digital converter under control of pClamp10 software (Molecular Devices). Currents were filtered at 500 Hz and digitized at 2 KHz.
(§3) After a stable whole cell recording was obtained, EC2 and saturating glycine concentrations activated currents with the anticipated magnitudes were verified. At al and α3 GlyRs, EC2 current magnitudes generally required glycine concentrations of 1 and 80 μM, respectively. The saturating concentration was invariably 2 mM. The standard experimental protocol involved EC2 glycine application for […] every 1 minute. When glycine was not being applied, the cells were continually and directly exposed to flowing drug solution. After 5 minutes of alternate applications of drug and EC2 glycine, 2 mM glycine was briefly applied every 2 minutes. Regular applications of saturating glycine after the 5 minute time point tended to enhance the drug-induced current magnitude effect further.
(§4) The effects of cannabinoid derivatives on al GlyR and α3 GlyR-regulated ion channel currents, as assessed by the patch clamp method, are indicated in Table 6.

[1] = rodents; systemic and intrathecal administration; cited from earlier work
human α3 GlyR = target: T2, human α3 GlyR (Homo sapiens, UniProt O75311); assay: Whole-cell patch clamp, modulation of α3 GlyR-regulated ion channel currents; format: cell-based; details: for A3 GlyR (fold increase): HEK293 cells stably expressing human α3 GlyR, EC2 glycine (80 μM), holding potential −40 mV, room temperature
T2 construct: expressed in transfected cells
T2 sequence (O75311 34-464): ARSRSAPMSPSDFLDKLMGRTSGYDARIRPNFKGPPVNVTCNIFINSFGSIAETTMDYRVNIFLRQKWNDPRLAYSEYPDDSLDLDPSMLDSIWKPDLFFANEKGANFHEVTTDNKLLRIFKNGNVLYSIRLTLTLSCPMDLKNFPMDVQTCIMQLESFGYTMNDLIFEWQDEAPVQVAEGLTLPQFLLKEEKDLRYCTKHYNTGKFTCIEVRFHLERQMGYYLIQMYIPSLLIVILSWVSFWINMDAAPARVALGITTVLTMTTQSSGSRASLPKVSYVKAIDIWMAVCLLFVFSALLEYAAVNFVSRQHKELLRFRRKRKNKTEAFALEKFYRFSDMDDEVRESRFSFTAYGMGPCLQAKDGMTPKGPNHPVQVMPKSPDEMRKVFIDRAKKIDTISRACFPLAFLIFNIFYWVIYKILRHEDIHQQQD
Method: as §1, §2, §3, §4

hippocampal neurons = details: cited from earlier work
presynaptic GlyR = details: brainstem and spinal cord of hyperekplexic mutant mice; cited from earlier work

Row | Molecule | α1 GlyR (fold increase) (human α1 GlyR) | A3 GlyR (fold increase) (human α3 GlyR) [fold] | also measured
1 | 7-OH-Desoxy-CBD [Compound 119] | no effect | – | –
2 | C=C(C)[C@@H]1CCC(C)=C[C@H]1c1c(O)cc(CCCCC)cc1O [CBD, cannabidiol] | – | – | Analgesic tolerance [1]: without causing apparent analgesic tolerance; Suppression of chronic inflammatory and neuropathic pain [1]: significantly suppresses chronic inflammatory and neuropathic pain
3 | C=C(C)C1CCC(C)=CC1c1ccc(C(C)(C)CCCCCC)cc1O (stereo not drawn) [Compound 101, 1,1-dimethylheptyl desoxy CBD] | 13 fold | 5 | –
4 | C=C(C)C1CCC(C)=CC1c1ccc(C(C)C(C)CCCCC)cc1O (stereo not drawn) [Compound 102, 1,2-dimethylheptyl-desoxy CBD] | no effect | 18 | Selectivity α3 GlyR versus α1 GlyR (human α3 GlyR; comparison of patch clamp effects on α1 and α3 GlyR): highly selective towards α3 GlyR
5 | C=C(C)C1CCC(C)=CC1c1ccc(C(C)(C)CCC)cc1O (stereo not drawn) [Compound 103, 1,1-dimethylbutyl desoxy CBD] | 4 fold | 10 | –
6 | CCCCCCC(C)(C)c1ccc2c(c1)OC(C)(C)C1CCC(C)=CC21 (stereo not drawn) [Compound 148, 1,1-DMH-desoxy THC] | 4.2 fold | 4 | –
7 | C=C(C)[C@@H]1CCC(C)=C[C@H]1c1c(O)cc(CC2CN(C(C)=O)C2)cc1O [KLS-13019] | – | – | Potency relative to CBD (hippocampal neurons; more potent than CBD): 50 fold; Safety relative to CBD (hippocampal neurons; safer than CBD): > 400 fold
8 | C=C(C)[C@@H]1CCC(C)=C[C@H]1c1ccc(CCCCC)cc1O [desoxy-CBD, dehydroxylcannabidiol] | 26.7 fold | 4.6 | Analgesic tolerance [1]: without causing apparent analgesic tolerance; Suppression of chronic inflammatory and neuropathic pain [1]: significantly suppresses chronic inflammatory and neuropathic pain; Rescue of impaired presynaptic GlyR activity and diminished glycine release (presynaptic GlyR): selectively rescues impaired presynaptic GlyR activity and diminished glycine release
9 | CCCCCc1ccc2c(c1)OC(C)(C)C1CCC(C)=CC21 (stereo not drawn) [desoxy-THC] | 11.2 fold | 4.7 | –
